From patent publication US6599906B1, “Method of local anesthesia and analgesia” (priority 2000, dated 2003)
“And” between values parts separate entries of the source, which are not always exact repeats. Equal entries are not always repeated. Where two headings read alike, the source gives them in different places.

Experiments:
rabbits [1] = conditions: rabbit, in vivo
rabbits [2] = conditions: rabbit, in vivo; remark: listed apart in the source
rabbits [3] = conditions: rabbit, in vivo; remark: listed apart in the source
[4] = tested on: pain induced by tooth pulp stimulation; type: in vivo, New Zealand white rabbits
[5] = tested on: pain induced by tooth pulp stimulation; parameters: species or system rabbits; conditions: rabbit, in vivo; read-out: EC50 value and 95% confidence interval for dental local analgesia
tooth pain = conditions: background statement, patients; cited from earlier work

Which “RR (respiratory rate)” value (rabbits [1]) does the source give for `NC1=N[C@H](O)[C@H]2[C@H]3O[C@]4(O)O[C@@H]([C@@H](O)[C@@]2(N1)[C@@H]4O)[C@]3(O)CO` [tetrodotoxin, Tetrodotoxin] here?
Its value is 99 ± 11 and 102 ± 2 and 102 ± 6 and 91 ± 10 and 94 ± 12 and 99 ± 5.

And the “effect on ECG, in words” value (rabbits [1])?
Its value is “did not suggest any significant effect”.

What about the “effect on heart rate or respiratory rate, in words” value (rabbits [1]) of the same compound?
The value was “did not significantly modify the heart rate or respiratory rate”.

What about the “rabbits manifesting increased excretion in the respiratory tract” value (rabbits [2]) of the same compound?
The value was 4 out of 10.

What about the ALP (rabbits [3]) of the same compound?
Its ALP is 69 ± 17 U/L and 71 ± 23 U/L.

What about the ALT (rabbits [3]) of the same compound?
The ALT was 67 ± 43 U/L and 53 ± 19 U/L.

What about the BUN (rabbits [3]) of the same compound?
The BUN was 8.4 ± 0.9 mmol/L and 8.5 ± 1.7 mmol/L.

What about the CO2 in serum (rabbits [3]) of the same compound?
The CO2 in serum was 26.4 ± 1.2 mmol/L and 30.0 ± 2.5 mmol/L.

And the “Ca^2+ in serum” value (rabbits [3])?
The value was 3.26 ± 0.18 mmol/L and 3.34 ± 0.12 mmol/L.

What about the Cre (rabbits [3]) of the same compound?
Its Cre is 109 ± 12 µmol/L and 99 ± 6 µmol/L.

And the GTP (rabbits [3])?
Its GTP is 5.2 ± 1.3 U/L and 5.7 ± 2.1 U/L.

And the HCT (rabbits [3])?
The HCT was 38.5 ± 3.4% and 33.6 ± 1.9%.

And the HGB (rabbits [3])?
The HGB was 12.4 ± 1.0 g/dL and 11.3 ± 0.6 g/dL.

What about the IP (rabbits [3]) of the same compound?
Its IP is 1.66 ± 0.23 mmol/L and 1.46 ± 0.40 mmol/L.

What about the “K^+ in serum” value (rabbits [3]) of the same compound?
Its value is 3.8 ± 0.3 mmol/L and 3.8 ± 0.1 mmol/L.

What about the LAP (rabbits [3]) of the same compound?
Its LAP is 109 ± 11 µmol/L and 108 ± 10 µmol/L.

What about the MCH (rabbits [3]) of the same compound?
The MCH was 22.2 ± 1.4 pg and 22.5 ± 1.1 pg.

What about the MCHC (rabbits [3]) of the same compound?
The MCHC was 32.4 ± 1.3 g/dL and 33.6 ± 0.6 g/dL.

And the MCV (rabbits [3])?
The MCV was 68.5 ± 2.8 fL and 66.9 ± 2.1 fL.

What about the “Na^+ in serum” value (rabbits [3]) of the same compound?
Its value is 141.1 ± 1.1 mmol/L and 141.7 ± 1.8 mmol/L.

And the PLT (rabbits [3])?
Its PLT is 141 ± 120 ×10^3/μl and 159 ± 37 ×10^3/μl.

What about the TBA (rabbits [3]) of the same compound?
The TBA was 13.5 ± 12.0 U/L and 14.5 ± 9.2 U/L.

And the TP (rabbits [3])?
Its TP is 60 ± 6 g/L and 57 ± 6 g/L.

What about the WBC (rabbits [3]) of the same compound?
Its WBC is 4.2 ± 1.2 ×10^3/μl and 6.6 ± 2.4 ×10^3/μl.

What about the “effect on the blood cellular or biochemical parameters, in words” value (rabbits [3]) of the same compound?
The value was “did not have any significant effect”.

What about the “onset of the effect of TTX increasing the threshold voltage” value ([4]; rabbit, in vivo) of the same compound?
Its value is 5 min.

And the “time at which peak of effect on threshold voltage was reached” value ([4]; rabbit, in vivo)?
The value was 1 h.

What about the EC50 [5] of the same compound?
Its EC50 is 1040 ± 30 µM.

With `CCN(CC)CC(=O)Nc1c(C)cccc1C` [lidocaine] as the compound, how does the “Percentage change in pain-inducing threshold voltage” value (from here on “Percentage change”) ([4]; rabbit, in vivo) read?
The value was 30 ± 29% and 28 ± 36% and 26 ± 30% and 20 ± 32% and 24 ± 32% and 17 ± 21%.

And the “effect on the threshold voltage compared to the solvent control, in words” value ([4]; rabbit, in vivo)?
Its value is “markedly increased the threshold voltage”.

And the “synergistic activity with TTX, in words” value ([4]; rabbit, in vivo)?
The value was “did not show a similar synergistic activity”.

With `CCN(CC)CCOC(=O)c1ccc(N)cc1` [procaine] as the compound, how does the “period of partial pain relief as topical anesthetic for tooth pain” value (tooth pain) read?
The value was “about 1 hour”.

What about the “Percentage change” value ([4]; 2% anesthetic, 20 μL to tooth pulp cavity, 10 min) of the same compound?
Its value is −2 ± 20%.

What about the “Percentage change” value ([4]; 2% anesthetic, 20 μL to tooth pulp cavity, 20 min) of the same compound?
Its value is −2 ± 20%.

What about the “Percentage change” value ([4]; 2% anesthetic, 20 μL to tooth pulp cavity, 30 min) of the same compound?
Its value is −4 ± 23%.

What about the “Percentage change” value ([4]; 2% anesthetic, 20 μL to tooth pulp cavity, 40 min) of the same compound?
The value was −3 ± 22%.

And the “Percentage change” value ([4]; 2% anesthetic, 20 μL to tooth pulp cavity, 50 min)?
The value was −2 ± 28%.

What about the “Percentage change” value ([4]; 2% anesthetic, 20 μL to tooth pulp cavity, 60 min) of the same compound?
The value was −1 ± 26%.

What about the “effect on the threshold voltage compared to the solvent control, in words” value ([4]; rabbit, in vivo) of the same compound?
Its value is “no clear effect on the threshold voltage”.

With `CCCCNc1ccc(C(=O)OCCN(C)C)cc1` [tetracaine] as the compound, how does the “period of partial pain relief as topical anesthetic for tooth pain” value (tooth pain) read?
The value was “about 1 hour”.

What about the “Percentage change” value ([4]; 1% tetracaine (equal to 33 mM), 20 μL to tooth pulp cavity, 10 min) of the same compound?
The value was 27 ± 30%.

What about the “Percentage change” value ([4]; 1% tetracaine (equal to 33 mM), 20 μL to tooth pulp cavity, 20 min) of the same compound?
The value was 32 ± 38%.

What about the “Percentage change” value ([4]; 1% tetracaine (equal to 33 mM), 20 μL to tooth pulp cavity, 30 min) of the same compound?
Its value is 29 ± 31%.

And the “Percentage change” value ([4]; 1% tetracaine (equal to 33 mM), 20 μL to tooth pulp cavity, 40 min)?
The value was 32 ± 22%.

What about the “Percentage change” value ([4]; 1% tetracaine (equal to 33 mM), 20 μL to tooth pulp cavity, 50 min) of the same compound?
Its value is 22 ± 15%.

What about the “Percentage change” value ([4]; 1% tetracaine (equal to 33 mM), 20 μL to tooth pulp cavity, 60 min) of the same compound?
Its value is 16 ± 18%.

And the “Percentage change” value ([4]; Table 7, 1% tetracaine, 20 μL to tooth pulp cavity, 15 min)?
The value was 27 ± 30%.

What about the “Percentage change” value ([4]; Table 7, 1% tetracaine, 20 μL to tooth pulp cavity, 45 min) of the same compound?
The value was 32 ± 22%.

And the “effect on the threshold voltage compared to the solvent control, in words” value ([4]; rabbit, in vivo)?
The value was “markedly increased the threshold voltage”.
